Counter-ions that a name gives are not always drawn.
Legend:
Assay type in all cases: biochemical
[1] = tested on: dopamine (DA) reuptake in synaptosomes; test: Inhibition of 3H-DA reuptake in synaptosomes; conditions: read-out: DA-uptake IC50
Procedure: (§1) Compounds were tested for their ability to inhibit the reuptake of the monoamine neurotransmitters dopamine (DA) noradrenaline (NA) and serotonine (5-HT) in synaptosomes as described in WO 97/16451 (NeuroSearch A/S).
(§2) The test values are given as IC50 (the concentration (μM) of the test substance which inhibits the specific binding of ^3H-DA, ^3H-NA, or ^3H-5-HT by 50%).

[2] = tested on: serotonine (5-HT) reuptake in synaptosomes; test: Inhibition of 3H-5-HT reuptake in synaptosomes; conditions: read-out: 5-HT-uptake IC50
Procedure: as §1, §2

[3] = tested on: noradrenaline (NA) reuptake in synaptosomes; test: Inhibition of 3H-NA reuptake in synaptosomes; conditions: read-out: NA-uptake IC50
Procedure: as §1, §2

With CN1[C@@H]2CC[C@H]1C[C@H](Oc1ccc(C#Cc3ccccc3)cc1)C2 [Compound C1, exo-8-Methyl-3-(4-phenylethynyl-phenoxy)-8-aza-bicyclo[3.2.1]octane fumaric acid salt] the IC50 [1] was 24 nM, the IC50 [2] was 720 nM and the IC50 [3] was 79 nM.

Reference: patent US20110015235A1, “NOVEL PHENYLETHYNYL DERIVATIVES OF 8-AZA-BICYCLO[3.2.1]OCTANE AND THEIR USE AS MONOAMINE NEUROT[…]-UPTAKE INHIBITORS” (NeuroSearch A/S, priority 2008, published 2011)
